Source: patent EP0435946B1, “METHODS FOR MODIFYING THE BINDING OF CELL ADHESION RECEPTORS” (LA JOLLA CANCER RESEARCH FOUNDATION, priority 1988, dated 1990)

Tests used:
fibronectin receptor [1] = target: T1, fibronectin receptor (Homo sapiens, UniProt P05556+P08648); assay: Attachment of fibronectin receptor liposomes to fibronectin-coated wells in the presence of cations; format: binding; parameters: from tissue; host or cells: human placenta; details: for % Attachment: cations 1 mM, percentage of control attachment in 1 mM CaCl₂ and 1 mM MgCl₂, mean and standard error, three experiments; for fibronectin receptor liposome attachment, result in words: compared with Ca²⁺, Ca²⁺ and Mg²⁺, or absence of Ca²⁺ or Mg²⁺
T1 sequence (P08648 42-894 limits assumed): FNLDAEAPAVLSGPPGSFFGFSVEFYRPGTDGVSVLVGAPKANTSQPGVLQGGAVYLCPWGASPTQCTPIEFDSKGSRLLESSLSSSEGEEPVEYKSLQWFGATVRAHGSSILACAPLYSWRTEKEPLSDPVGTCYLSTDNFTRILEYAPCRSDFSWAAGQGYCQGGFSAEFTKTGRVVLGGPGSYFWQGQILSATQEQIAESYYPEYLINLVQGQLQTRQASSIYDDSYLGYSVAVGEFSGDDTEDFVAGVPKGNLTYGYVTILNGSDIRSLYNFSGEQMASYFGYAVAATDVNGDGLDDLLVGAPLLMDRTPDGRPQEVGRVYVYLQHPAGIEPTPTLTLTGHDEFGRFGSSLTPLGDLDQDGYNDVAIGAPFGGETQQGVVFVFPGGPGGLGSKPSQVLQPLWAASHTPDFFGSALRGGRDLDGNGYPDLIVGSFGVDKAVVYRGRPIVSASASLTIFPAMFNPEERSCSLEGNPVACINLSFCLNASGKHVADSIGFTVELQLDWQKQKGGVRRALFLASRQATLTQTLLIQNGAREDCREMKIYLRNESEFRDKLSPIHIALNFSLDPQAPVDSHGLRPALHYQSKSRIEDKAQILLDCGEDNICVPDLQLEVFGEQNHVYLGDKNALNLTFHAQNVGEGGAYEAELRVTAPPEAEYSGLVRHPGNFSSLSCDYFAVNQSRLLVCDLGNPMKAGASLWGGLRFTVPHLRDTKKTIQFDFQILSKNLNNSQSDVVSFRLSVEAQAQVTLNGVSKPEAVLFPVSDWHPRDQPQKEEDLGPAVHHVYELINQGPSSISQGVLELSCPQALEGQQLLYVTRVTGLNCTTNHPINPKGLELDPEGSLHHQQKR
T1 sequence (P08648 895-1049 partner limits assumed): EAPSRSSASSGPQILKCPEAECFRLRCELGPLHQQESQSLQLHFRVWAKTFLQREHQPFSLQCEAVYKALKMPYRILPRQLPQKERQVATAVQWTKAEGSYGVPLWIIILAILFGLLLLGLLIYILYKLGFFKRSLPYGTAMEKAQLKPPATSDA
T1 sequence (P05556 21-798): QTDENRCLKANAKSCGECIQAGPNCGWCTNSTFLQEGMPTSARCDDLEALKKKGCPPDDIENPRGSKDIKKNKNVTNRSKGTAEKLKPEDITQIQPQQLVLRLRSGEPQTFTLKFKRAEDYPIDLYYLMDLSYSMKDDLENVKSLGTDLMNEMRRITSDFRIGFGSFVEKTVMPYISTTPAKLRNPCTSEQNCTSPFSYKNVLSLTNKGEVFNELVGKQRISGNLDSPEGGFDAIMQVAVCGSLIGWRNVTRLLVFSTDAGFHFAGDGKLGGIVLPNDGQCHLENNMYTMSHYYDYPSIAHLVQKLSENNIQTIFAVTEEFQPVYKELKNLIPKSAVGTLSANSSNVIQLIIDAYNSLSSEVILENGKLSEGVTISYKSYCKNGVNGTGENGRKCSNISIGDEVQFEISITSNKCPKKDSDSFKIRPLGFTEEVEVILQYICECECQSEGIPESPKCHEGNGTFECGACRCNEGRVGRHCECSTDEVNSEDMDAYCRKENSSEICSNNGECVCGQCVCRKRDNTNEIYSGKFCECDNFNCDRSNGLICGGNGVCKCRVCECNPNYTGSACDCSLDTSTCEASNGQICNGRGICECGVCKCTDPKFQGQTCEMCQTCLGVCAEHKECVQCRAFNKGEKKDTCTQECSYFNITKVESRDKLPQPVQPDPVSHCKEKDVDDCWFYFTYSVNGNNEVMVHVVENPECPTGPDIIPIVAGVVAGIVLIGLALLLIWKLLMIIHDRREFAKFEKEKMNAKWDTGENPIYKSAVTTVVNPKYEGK
Text: The effect of cations on the binding of the fibronectin receptor to its ligand was studied by incorporating the receptor into liposomes and measuring receptor liposome attachment to a fibronectin-coated surface in the presence of various cations.
(§1) Fibronectin receptors were purified from human placenta by affinity chromatography on a 110 kDa chymotryptic fragment of fibronectin, according to the methods of Pytela et al., Cell 40:191 (1985), and Pytela et al., Meth. Enzymol. 144:475-489 (1987), with the following modifications. The 110 kDa fragment corresponds to the 120 kDa fragment described in Pytela et al. (1985), supra. […] Briefly, homogenized placental tissue was washed once with 2 volumes of cold TBS containing 1 mM CaCl₂, 1 mM MgCl₂ and 3 mM phenylmethyl sulfonyl fluoride (PMSF), centrifuged, and the pellet was extracted with 1 volume of cold TBS containing 100 mM octyl-β-D-glucopyranoside (Calbiochem, La Jolla, CA), and calcium, magnesium, and PMSF as in Pytela et al., (1985) supra. The clear extract was slowly applied at 4°C, first to a column of plain Sepharose, and then to 110 kDa fibronectin fragment-Sepharose. […] Bound receptor was eluted with the wash buffer containing 20 mM EDTA in place of calcium and magnesium. Eluted receptor was used immediately for the preparation of receptor liposomes or stored frozen. In some experiments, 1 mM MnCl₂ was substituted for CaCl₂ and MgCl₂ throughout the isolation procedure.
Aliquots of the receptor liposome preparation were mixed with the indicated cations (1 mM) and the attachment of the liposomes to microtiter wells coated with fibronectin was assayed. The results are expressed as a percentage of control attachment, which was measured in the presence of 1 mM CaCl₂ and 1 mM MgCl₂. Mean and standard error from three experiments are shown.

Vitronectin receptor = target: T2, Vitronectin receptor (Homo sapiens, UniProt P05106+P06756); assay: Vitronectin receptor liposome attachment to vitronectin; format: binding; details: a number of liposome attachment assays
T2 construct: Vitronectin receptor was purified from human placenta; from tissue; host or cells: human placenta
T2 sequence (P06756 31-889 limits assumed): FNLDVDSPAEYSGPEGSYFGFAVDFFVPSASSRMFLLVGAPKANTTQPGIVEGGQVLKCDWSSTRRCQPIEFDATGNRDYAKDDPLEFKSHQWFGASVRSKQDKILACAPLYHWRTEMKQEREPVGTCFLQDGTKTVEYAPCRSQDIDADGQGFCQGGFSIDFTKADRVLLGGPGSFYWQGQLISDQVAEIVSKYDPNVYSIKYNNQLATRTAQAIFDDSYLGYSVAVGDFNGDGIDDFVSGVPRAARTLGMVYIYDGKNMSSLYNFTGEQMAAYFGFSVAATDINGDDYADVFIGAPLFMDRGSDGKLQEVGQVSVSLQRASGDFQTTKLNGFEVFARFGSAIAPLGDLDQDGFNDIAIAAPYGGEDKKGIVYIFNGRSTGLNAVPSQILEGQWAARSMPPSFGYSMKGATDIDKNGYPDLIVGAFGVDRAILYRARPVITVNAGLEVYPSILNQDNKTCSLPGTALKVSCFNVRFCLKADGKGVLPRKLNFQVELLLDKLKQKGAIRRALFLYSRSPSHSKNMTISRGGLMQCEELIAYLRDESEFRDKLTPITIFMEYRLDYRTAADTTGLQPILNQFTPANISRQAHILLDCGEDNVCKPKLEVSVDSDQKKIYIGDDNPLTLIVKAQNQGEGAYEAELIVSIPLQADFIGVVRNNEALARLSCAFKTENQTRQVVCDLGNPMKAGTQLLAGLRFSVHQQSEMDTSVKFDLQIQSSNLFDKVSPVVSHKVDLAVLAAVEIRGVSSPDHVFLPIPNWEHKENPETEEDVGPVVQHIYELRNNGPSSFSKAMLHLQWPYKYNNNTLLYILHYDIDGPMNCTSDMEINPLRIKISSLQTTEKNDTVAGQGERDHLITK
T2 sequence (P06756 891-1048 partner limits assumed): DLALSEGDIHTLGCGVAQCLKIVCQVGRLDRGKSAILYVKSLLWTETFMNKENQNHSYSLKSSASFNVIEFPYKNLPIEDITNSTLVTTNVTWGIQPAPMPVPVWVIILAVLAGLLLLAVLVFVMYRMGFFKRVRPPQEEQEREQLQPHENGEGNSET
T2 sequence (P05106 27-788): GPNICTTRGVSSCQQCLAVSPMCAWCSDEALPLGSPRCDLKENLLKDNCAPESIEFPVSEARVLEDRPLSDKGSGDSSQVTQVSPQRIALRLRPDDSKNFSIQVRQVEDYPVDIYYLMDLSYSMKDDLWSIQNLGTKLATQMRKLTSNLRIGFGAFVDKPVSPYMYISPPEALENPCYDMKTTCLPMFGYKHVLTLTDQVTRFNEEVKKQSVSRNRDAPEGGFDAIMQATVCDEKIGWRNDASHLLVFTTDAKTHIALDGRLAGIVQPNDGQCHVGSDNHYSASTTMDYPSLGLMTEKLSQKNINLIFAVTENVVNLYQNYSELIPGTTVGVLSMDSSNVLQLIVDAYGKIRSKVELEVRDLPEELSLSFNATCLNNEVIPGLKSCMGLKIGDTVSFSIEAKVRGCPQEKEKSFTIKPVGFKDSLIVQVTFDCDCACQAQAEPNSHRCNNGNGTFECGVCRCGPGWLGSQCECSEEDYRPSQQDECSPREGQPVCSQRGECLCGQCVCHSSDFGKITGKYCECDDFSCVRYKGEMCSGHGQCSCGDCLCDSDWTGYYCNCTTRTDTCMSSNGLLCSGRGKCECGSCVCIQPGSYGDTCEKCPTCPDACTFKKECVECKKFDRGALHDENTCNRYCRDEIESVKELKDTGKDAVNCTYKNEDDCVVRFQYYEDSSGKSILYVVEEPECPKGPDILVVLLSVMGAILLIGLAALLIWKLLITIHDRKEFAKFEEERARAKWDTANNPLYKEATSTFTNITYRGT
Procedure: Vitronectin receptor was purified from human placenta as described in Example I for the fibronectin receptor, but a different affinity matrix containing the peptide Gly-Arg-Gly-Asp-Ser-Pro-Lys was employed. The peptide was synthesized with an Applied Biosystems Model 430A, according to the manufacturer's instructions. Vitronectin receptor was isolated according to the method of Example I in the presence of 1 mM Ca²⁺ and 1mM Mg²⁺ or in 1 mM Ca²⁺ alone. In a number of liposome attachment assays, Mn²⁺ enhanced the binding of this integrin to vitronectin by 20-50% over the binding measured in Ca²⁺ and Mg²⁺.

Type I collagen receptor = Type I collagen receptor liposome binding to collagen; parameters: species or system human
Text: Type I collagen receptor was also isolated from placenta, employing the method given in Example I with the following modifications. Mn²⁺ was used in the chromatography buffers for this procedure, and the affinity matrix contained Type I collagen.

A375M cells [2] = assay: In vitro wound model of cell migration on ligand-coated cell-free lanes; format: cell-based, human; details: 100 µM MnCl₂ in media with Ca²⁺ and Mg²⁺; spaces coated with fibronectin and Type IV collagen; versus controls
Procedure: An in vitro wounding assay was developed to test the effects of Mn²⁺ on cell migration into a wounded (cell free) area that was coated with various adhesion proteins. This assay allowed the determination of the specific ligands and the respective receptors that are involved in the migration process. More specifically, this assay was used to test cell migration on various substrates in the presence of Mn²⁺. A375M cells were grown to confluency in 6 well culture dishes (Corning, New York, NY). A specially designed comb which scratches out 4-2mm wide lanes was used to make a crossing pattern in the cell layer, removing the cells. The cell-free lanes were then coated for 1 hour at 37°C with one of the following ligands: fibronectin, vitronectin, Type I or Type IV collagen, bovine serum albumin or laminin. These proteins were dissolved in PBS at a concentration of 10µg/ml and then added directly to the wounded cell layer.
Standard Culture Media containing Ca²⁺ and Mg²⁺ and 100 µM MnCl₂ was added to the culture dishes while control dishes had the same media without Mn²⁺. Cell migration was monitored by visualization.

fibronectin receptor [3] = target: T1, fibronectin receptor; details: Mn²⁺ versus Ca²⁺/Mg²⁺
A375M cells [4] = system: A375M cells
fibronectin receptor [5] = target: T1, fibronectin receptor; assay: Yield of fibronectin receptor from affinity chromatography on 110 kDa fibronectin fragment, densitometry of SDS-PAGE; parameters: from tissue; host or cells: human placenta
Procedure: as §1
Fibronectin receptor can be isolated by affinity chromatography on the 110 kDa fibronectin fragment (See Pytela, et al., (1985), (1987), supra). […]

fibronectin receptor [6] = target: T1, fibronectin receptor; assay: Attachment of fibronectin receptor liposomes to fibronectin-coated wells in the presence of cations; format: binding; parameters: from tissue; host or cells: human placenta; details: for binding of fibronectin receptor liposomes to fibronectin, multiple of binding measured in Ca²⁺ alone: in 1mM Ca²⁺; for binding of fibronectin receptor liposomes to fibronectin, multiple of binding measured in Ca²⁺ alone / binding of fibronectin receptor liposomes to fibronectin, multiple of binding measured in Mg²⁺ alone: mean and standard error, two experiments; for binding of fibronectin receptor liposomes to fibronectin, multiple of binding measured in Mg²⁺ alone: in 1mM Mg²⁺
[7] = target: T3, Fibronectin receptor (FNR) (Homo sapiens, UniProt P05556+P08648); assay: Inhibition by Gd3+ of fibronectin receptor liposome attachment; format: binding; details: for % Inhibition FNR: 1 mM CaCl₂ and 1 mM MgCl₂
T3 construct: from tissue; host or cells: human placenta
T3 sequence (P08648 42-894 limits assumed): as the sequence (P08648 42-894 limits assumed) above
T3 sequence (P08648 895-1049 partner limits assumed): as the sequence (P08648 895-1049 partner limits assumed) above
T3 sequence (P05556 21-798): as the sequence (P05556 21-798) above
Procedure: (§2) The ability of Gd³⁺ to inhibit the binding of integrins was assayed in the liposome attachment system. Fibronectin receptor (FNR) and vitronectin receptor (VNR) liposomes were prepared by dialysis against TBS containing 1 mM CaCl₂ and 1 mM MgCl₂. Aliquots of GdCl₃ were added to the liposomes at the start of the assay. […] Such situations include binding of inflammatory cells at the site of a tissue injury caused by, for example, an ischemic episode, such as is associated with a cardiac or brain infarct.

[8] = target: T4, vitronectin receptor (VNR) (Homo sapiens, UniProt P05106+P06756); assay: Inhibition by Gd3+ of vitronectin receptor liposome attachment; format: binding; details: for % Inhibition VNR: 1 mM CaCl₂ and 1 mM MgCl₂
T4 construct: Vitronectin receptor was purified from human placenta; from tissue; host or cells: human placenta
T4 sequence (P06756 31-889 limits assumed): as the sequence (P06756 31-889 limits assumed) above
T4 sequence (P06756 891-1048 partner limits assumed): as the sequence (P06756 891-1048 partner limits assumed) above
T4 sequence (P05106 27-788): as the sequence (P05106 27-788) above
Procedure: as §2

In the case of [Zn+2] [Zn²⁺], the “attachment, % of the control value” (fibronectin receptor [1]; one similar assay) is reported as 128%.
In the case of [Cl][Mn][Cl] [Mn²⁺, MnCl₂], the “enhancement of binding to vitronectin over the binding measured in Ca²⁺ and Mg²⁺” value (Vitronectin receptor) is reported as 20-50%, the “binding of Type I collagen receptor liposomes to collagen, result in words” value (Type I collagen receptor) is reported as “clear and specific binding to collagen” and the “migration into cell-free spaces, result in words” value (A375M cells [2]) is reported as “augmented migration”. The “factor of increase of the relative affinity of the receptor for the fragment” value (fibronectin receptor [3]; ligand 110 kDa fibronectin fragment) was 4.5, the “factor of increase of the relative receptor affinity for the peptide” value (fibronectin receptor [3]; ligand GRGDSP) was 50 and the “increase in invasion / migration of cells” value (A375M cells [4]; 100 µM MnCl₂, after 72 hours) was 30%. For the same compound, the “effect on cell viability and migration” value (A375M cells [4]; concentrations higher than 100 µM) was “cell viability is affected and therefore migration is reduced”, the “% Attachment” value (fibronectin receptor [1]) was 210 ± 29% and the “binding of receptor isolated with Mn²⁺ in the liposome attachment assay, Mn²⁺ versus Ca²⁺/Mg²⁺” value (fibronectin receptor [1]; receptor isolated with Mn²⁺) was “several times higher”. For the same compound, the “yield of receptor with Mn²⁺ relative to Ca²⁺ and Mg²⁺” value (fibronectin receptor [5]; 1 mM Mn²⁺ substituted for Ca²⁺/Mg²⁺, estimated by densitometry) was “four-fold higher”, the “Receptor Peak Area” value (fibronectin receptor [5]; cations 1 mM in chromatography buffers, Coomassie blue gels scanned) was 18.2 and the “binding of fibronectin receptor liposomes to fibronectin, multiple of binding measured in Ca²⁺ alone” value (shortened to “binding … in Ca²⁺ alone”) (fibronectin receptor [6]; 0.01 mM Mn²⁺ added) was 1.23 ± 0.66. The “binding of fibronectin receptor liposomes to fibronectin, multiple of binding measured in Mg²⁺ alone” value (shortened to “binding … in Mg²⁺ alone”) (fibronectin receptor [6]; 0.01 mM Mn²⁺ added) was 0.97 ± 0.17, the “binding … in Ca²⁺ alone” value (fibronectin receptor [6]; 0.1mM Mn²⁺ added) was 4.41 ± 0.33 and the “binding … in Mg²⁺ alone” value (fibronectin receptor [6]; 0.1mM Mn²⁺ added) was 2.04 ± 0.08. For the same compound, the “binding … in Ca²⁺ alone” value (fibronectin receptor [6]; 1 mM Mn²⁺ added) was 5.78 ± 0.47, the “binding … in Mg²⁺ alone” value (fibronectin receptor [6]; 1 mM Mn²⁺ added) was 3.12 ± 0.10 and the “concentration at which liposome attachment was promoted (as low as)” value (fibronectin receptor [6]; cation titration, Figure 1) was 3 µM.
In the case of [Cd+2] [Cd²⁺], the “% Attachment” value (fibronectin receptor [1]) is reported as 130 ± 30% and the “fibronectin receptor liposome attachment, result in words” value (fibronectin receptor [1]) is reported as “increased the percentage of attachment above that obtained in the presence of Ca²⁺ and Mg²⁺”.
[Ca+2].[Cl-].[Cl-] [Ca²⁺, CaCl₂, reference compound] was tested, and the “% Attachment” value (fibronectin receptor [1]) was 75 ± 10%.
With [Fe+2] [Fe²⁺] the “fibronectin receptor liposome attachment, result in words” value (fibronectin receptor [1]) was “produced less attachment than Ca²⁺, but did support fibronectin receptor attachment above the level found in the absence of either Ca²⁺ or Mg²⁺”.
In the case of [Cu+2] [Cu²⁺], the “fibronectin receptor liposome attachment, result in words” value (fibronectin receptor [1]) is reported as “produced increased attachment above that found in the absence of Ca²⁺ or Mg²⁺ in at least one experiment”.
For [Co+2] [Co²⁺], the “% Attachment” value (fibronectin receptor [1]) was 150 ± 13% and the “fibronectin receptor liposome attachment, result in words” value (fibronectin receptor [1]) was “increased the percentage of attachment above that obtained in the presence of Ca²⁺ and Mg²⁺”.
[Ni+2] [Ni²⁺] was tested, and the “% Attachment” value (fibronectin receptor [1]) was 100 ± 12% and the “fibronectin receptor liposome attachment, result in words” value (fibronectin receptor [1]) was “as effective as the combination of Ca²⁺ and Mg²⁺”.
With [La+3] [La³⁺] the “fibronectin receptor liposome attachment, result in words” value (fibronectin receptor [1]) was “produced increased attachment above that found in the absence of Ca²⁺ or Mg²⁺ in at least one experiment”.
In the case of [Sr+2] [Sr²⁺], the “fibronectin receptor liposome attachment, result in words” value (fibronectin receptor [1]) is reported as “produced increased attachment above that found in the absence of Ca²⁺ or Mg²⁺ in at least one experiment”.
With [Ba+2] [Ba²⁺] the “fibronectin receptor liposome attachment, result in words” value (fibronectin receptor [1]) was “produced less attachment than Ca²⁺, but did support fibronectin receptor attachment above the level found in the absence of either Ca²⁺ or Mg²⁺”.
For [Cl][Gd]([Cl])[Cl] [Gd³⁺, GdCl₃], the “% Inhibition FNR” value ([7]; Gd³⁺ 0.1 mM) was 8%, the “% Inhibition FNR” value ([7]; Gd³⁺ 0.3 mM) was 61% and the “% Inhibition FNR” value ([7]; Gd³⁺ 1 mM) was 91%. For the same compound, the “% Inhibition FNR” value ([7]; Gd³⁺ 3 mM) was 87%, the “attachment of fibronectin receptor to its ligand, result in words” value ([7]; concentrations above 0.3 mM) was “significant decrease in attachment” and the “% Inhibition VNR” value ([8]; Gd³⁺ 0.1 mM) was 0%. The “% Inhibition VNR” value ([8]; Gd³⁺ 0.3 mM) was 59%, the “% Inhibition VNR” value ([8]; Gd³⁺ 1 mM) was 93% and the “% Inhibition VNR” value ([8]; Gd³⁺ 3 mM) was 100%. The “attachment of vitronectin receptor to its ligand, result in words” value ([8]; concentrations above 0.3 mM) was “significant decrease in attachment” and the “fibronectin receptor liposome attachment, result in words” value (fibronectin receptor [1]) was “produced increased attachment above that found in the absence of Ca²⁺ or Mg²⁺ in at least one experiment”.
In the case of [Cl-].[Cl-].[Mg+2] [Mg²⁺, MgCl₂, reference compound], the “% Attachment” value (fibronectin receptor [1]) is reported as 110 ± 5%.
With [Be+2] [Be²⁺] the “fibronectin receptor liposome attachment, result in words” value (fibronectin receptor [1]) was “produced less attachment than Ca²⁺, but did support fibronectin receptor attachment above the level found in the absence of either Ca²⁺ or Mg²⁺”.
